The results in this text go back to patent US20240327418A1, “MULTI-TARGET INHIBITOR TARGETING HDAC AND NAD SYNTHESIS AND USE OF MULTI-TARGET INHIBITOR” (OCEAN UNIVERSITY OF CHINA, priority 2021, published 2024).

The subject of data set [1] is acute myelogenous leukemia cells MV4-11. The data set can be described thus: GI50 and LC50 by NCI method, MV4-11. It is filed as cell-based. The following applies: Homo sapiens, 48 hours, Cell Titer-Blue. Here is the method:
(§1) The median growth inhibitory concentration (GI50) and median lethal concentration (LC50) were determined by NCI method. Leukemia cell strains MV4-11, HL60, PL21, KASUMI-1, MONO-MAC-1 and NB-4 were cultured in an Iscove's Modified Dulbecco Medium (IMDM) containing 10% fetal bovine serum, were inoculated into a 96-well cell culture plate at a density of 10,000 cells/100 μL and cultured overnight. 6 wells were selected as Tz wells, 0.125 mg/mL Cell Titer-Blue dye was added, and the cells were cultured for 4 hours and then the fluorescence intensity at […] (excitation wavelength/emission wavelength) was read. Compounds of different concentrations were added to the remaining wells, and a 100% control group was set. After 48 hours of cultivation, 0.125 mg/mL Cell Titer-Blue dye was added and the fluorescence intensity at […] was read after 4 hours. The fluorescence intensity of the dosing group was represented by Ti, the fluorescence intensity of the 100% control group was represented by C, and the fluorescence intensity before dosing was represented by Tz.
(§2) If Ti≥Tz, the formula [(Ti−Tz)/(C−Tz)]×100 was used.
(§3) If Ti<Tz, the formula [(Ti−Tz)/Tz]×100 was used.
(§4) The GI50 and LC50 values of some compounds on leukemia cell strains MV4-11, HL60, PL21, KASUMI-1, MONO-MAC-1 and NB-4 are shown in FIG. 1, Table 3, FIG. 2, and Table 4.

For data set [2], the target named is HDAC1 (Homo sapiens (Human), UniProt Q13547). Description: Inhibitory activity on HDAC1 (fluorescence enzyme assay). The settings on record: read-out: IC50 HDAC1; mean of three independent experiments.
The target in data set [3] is HDAC2 (Homo sapiens (Human), UniProt Q92769). Description: Inhibitory activity on HDAC2 (fluorescence enzyme assay). The following applies: read-out: IC50 HDAC2; mean of three independent experiments.
Data set [4] has as its target HDAC3 (Homo sapiens (Human), UniProt O15379). The data set can be described thus: Inhibitory activity on HDAC3 (fluorescence enzyme assay). The following applies: read-out: IC50 HDAC3; mean of three independent experiments.
Data set [5] has as its system acute myelogenous leukemia cells HL60. Description: GI50 and LC50 by NCI method, HL60. It is filed as cell-based. The following applies: for CC50 / GI50: Homo sapiens, HL-60, 48 hours, Cell Titer-Blue. As to the method:
as §1, §2, §3, §4
(The colour change of resazurin is a common sign of viable cells or microbes.)

The target in data set [6] is NAMPT (Homo sapiens (Human), UniProt P43490). The data set can be described thus: Inhibitory activity on NAMPT. The settings on record: for IC50: mean of three independent experiments. The class given is biochemical.
Data set [7] is described as follows: Pharmacokinetic properties in mice. The class given is in vivo.
Setting [8] is: mouse, plasma, po 20 mg/kg single dose.

HDAC1, sequence (Q13547 whole entry, species assumed): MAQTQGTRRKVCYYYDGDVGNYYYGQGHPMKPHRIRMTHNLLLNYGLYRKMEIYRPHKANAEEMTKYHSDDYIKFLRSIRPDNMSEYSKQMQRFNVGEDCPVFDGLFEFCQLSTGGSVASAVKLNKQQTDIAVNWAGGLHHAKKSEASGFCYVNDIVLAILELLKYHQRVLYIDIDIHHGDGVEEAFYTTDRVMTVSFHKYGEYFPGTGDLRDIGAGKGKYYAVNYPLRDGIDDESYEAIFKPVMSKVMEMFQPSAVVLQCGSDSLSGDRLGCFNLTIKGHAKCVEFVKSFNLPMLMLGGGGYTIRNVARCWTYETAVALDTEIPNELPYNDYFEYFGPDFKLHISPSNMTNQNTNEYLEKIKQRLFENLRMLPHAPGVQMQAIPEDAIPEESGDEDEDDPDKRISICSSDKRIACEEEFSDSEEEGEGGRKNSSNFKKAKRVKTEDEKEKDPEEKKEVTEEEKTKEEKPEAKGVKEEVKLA
HDAC3, sequence (O15379 whole entry, species assumed): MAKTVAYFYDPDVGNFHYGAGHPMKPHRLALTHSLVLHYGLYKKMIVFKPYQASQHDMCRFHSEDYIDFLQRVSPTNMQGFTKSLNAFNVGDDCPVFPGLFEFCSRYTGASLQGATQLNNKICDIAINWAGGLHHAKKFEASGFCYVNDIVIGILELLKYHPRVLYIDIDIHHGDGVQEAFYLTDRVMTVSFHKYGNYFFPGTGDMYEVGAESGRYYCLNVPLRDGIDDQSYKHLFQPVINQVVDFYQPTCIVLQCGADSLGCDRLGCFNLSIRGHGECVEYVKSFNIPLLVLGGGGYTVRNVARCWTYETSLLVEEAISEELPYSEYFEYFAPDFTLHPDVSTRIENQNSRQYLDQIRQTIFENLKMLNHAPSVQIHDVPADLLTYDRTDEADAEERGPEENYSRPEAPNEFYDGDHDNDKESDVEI
HDAC3, sequence (Q9Y618 395-489 partner, species assumed): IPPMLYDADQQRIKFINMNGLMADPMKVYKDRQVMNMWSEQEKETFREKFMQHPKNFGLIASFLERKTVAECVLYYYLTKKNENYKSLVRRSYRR
NAMPT, sequence (P43490 whole entry, species assumed): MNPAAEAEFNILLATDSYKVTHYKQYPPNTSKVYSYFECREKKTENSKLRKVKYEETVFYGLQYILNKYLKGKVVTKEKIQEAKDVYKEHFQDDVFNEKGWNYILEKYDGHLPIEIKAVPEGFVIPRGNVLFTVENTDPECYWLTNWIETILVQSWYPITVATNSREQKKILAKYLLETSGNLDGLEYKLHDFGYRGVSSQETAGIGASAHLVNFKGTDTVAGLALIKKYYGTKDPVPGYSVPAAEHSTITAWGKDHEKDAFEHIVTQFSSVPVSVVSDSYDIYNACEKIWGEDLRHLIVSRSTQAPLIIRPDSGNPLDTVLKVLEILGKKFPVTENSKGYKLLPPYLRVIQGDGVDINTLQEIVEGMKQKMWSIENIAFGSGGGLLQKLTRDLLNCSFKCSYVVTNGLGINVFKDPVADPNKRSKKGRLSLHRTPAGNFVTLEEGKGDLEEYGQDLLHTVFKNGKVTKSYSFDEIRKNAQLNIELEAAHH
HDAC2, sequence (Q92769 whole entry, species assumed): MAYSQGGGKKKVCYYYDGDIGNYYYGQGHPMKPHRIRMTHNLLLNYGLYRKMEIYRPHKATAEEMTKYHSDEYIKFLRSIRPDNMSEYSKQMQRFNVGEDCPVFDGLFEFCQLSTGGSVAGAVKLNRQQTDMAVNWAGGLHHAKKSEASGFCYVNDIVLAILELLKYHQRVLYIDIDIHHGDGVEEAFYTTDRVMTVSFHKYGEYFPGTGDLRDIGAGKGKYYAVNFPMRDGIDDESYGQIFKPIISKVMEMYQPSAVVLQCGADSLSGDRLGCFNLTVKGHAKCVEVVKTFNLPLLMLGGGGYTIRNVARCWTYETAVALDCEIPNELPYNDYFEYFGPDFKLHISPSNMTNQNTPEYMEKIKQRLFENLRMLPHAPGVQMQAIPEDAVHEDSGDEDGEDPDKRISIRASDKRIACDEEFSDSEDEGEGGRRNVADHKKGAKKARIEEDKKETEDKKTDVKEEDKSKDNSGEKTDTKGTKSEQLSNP

In the case of `Nc1ccccc1NC(=O)CCCCCCCNC(=O)/C=C/c1cccnc1` [LEE8, (E)-N-(2-aminophenyl)-8-(3-(pyridin-3-yl)acrylamido) octanamide], the GI50 (as a rule, the concentration that inhibits growth by half) in data set [1] amounted to 31.2 nM. In data set [1], this molecule had an LC50 (median lethal concentration) of 456 nM. The results for the IC50 in data set [2], in data set [3] and in data set [4] were 147 nM, 321 nM and 26.4 nM, respectively.

In the case of `Nc1ccccc1NC(=O)CCCCCCCn1cc(-c2cccnc2)nn1` [LEE11, N-(2-aminophenyl)-8-(4-(pyridin-3-yl)-1H-1,2,3-triazole-1-yl) octanamide], the half-maximal inhibitory concentration (IC50) (usually the midpoint of a concentration-inhibition curve) in data set [3] was 188 nM; in data set [4], 8.78 nM.

Turning to `CCCNNC(=O)CCCCNC(=O)/C=C/c1cccnc1` [LEE2, (E)-N-(5-oxo-5-(2-propylhydrazino)pentyl)-3-(pyridin-3-yl) acrylamide], the half-maximal inhibitory concentration (IC50) in data set [2] stood at 689 nM; in data set [3], 2000 nM; in data set [4] it was 112 nM.

For `CCCNNC(=O)CCNC(=O)/C=C/c1cccnc1` [LEE1, (E)-N-(3-oxo-3-(2-propylhydrazino)propyl)-3-(pyridin-3-yl) acrylamide], the IC50 is above 10000 nM in data set [2], 13600 nM in data set [3] and 1560 nM in data set [4].

On to `CCCNNC(=O)c1ccc(CNC(=O)c2cc3ccncc3[nH]2)cc1` [LEE21, N-(4-(2-propylhydrazino-1-carbonyl)benzyl)-1H-pyrrolo[2,3-c]pyridine-2-carboxamide], for which the GI50 in data set [1] was 25.4 nM; in data set [5], 81.5 nM. The molecule also showed an LC50 (median lethal concentration) in data set [1] of 58 nM. Also, the CC50 – broadly, the concentration at which the toxic effect on the cells reaches its halfway point – in data set [5] is above 10000 nM. Moreover, the IC50 in data set [2] stood at 8.17 nM; in data set [3], 51.5 nM; in data set [4] it was 2.42 nM.

In the case of `CCCNNC(=O)/C=C/c1ccc(CNCCc2c(C)[nH]c3ccccc23)cc1` [Comparative example 2 LP97/13a, reference compound], the IC50 in data set [6] was above 20000 nM. In data set [7] (setting [8]), the AUC(0-t) (as a rule, exposure summed from dosing to a finite time, without extrapolation to infinity) is 242 ng·h/mL and the Tmax (usually the time from dosing to the highest level) came out at 30 min. Besides, in data set [7] (po 20 mg/kg single dose), the Cmax (in general, the maximum level reached in the sampled fluid or tissue) turned out to be 45.1 ng/mL. The same molecule yielded a F in data set [7] (po 20 mg/kg vs iv 5 mg/kg) of 19.8%.

In data set [1], `CCCNNC(=O)CCCCCCNC(=O)c1cc2cnccc2[nH]1` [LEE7, N-(7-oxo-7-(2-propylhydrazino)heptyl)-3H-pyrrolo[3,2-c]pyridin-2-carboxamide] displayed a GI50 of 64.7 nM and an LC50 (median lethal concentration) of 164 nM. Besides, in data set [5], the “LC50 values in p53-null cell strain HL60 (in words)” value is “nanomolar level”, the CC50 stood at 724 nM and it took 158 nM to inhibit growth by half (GI50).

As to `CCCNNC(=O)CCCCCCCNC(=O)/C=C/c1cccnc1` [LEE4, (E)-N-(8-oxo-8-(2-propylhydrazino)octyl)-3-(pyridin-3-yl) acrylamide], the values for the IC50 in data set [2], in data set [3] and in data set [4] were 241 nM, 506 nM and 76.7 nM, respectively.

Consider `CCCNNC(=O)c1ccc(NC(=O)CCCCCCCn2cc(-c3cccnc3)nn2)cc1` [LEE41, N-(4-(2-propylhydrazino-1-carbonyl)phenyl)-8-(4-(pyridin-3-yl)-1H-1,2,3-triazole-1-yl) octanamide], for which the 50% inhibitory concentration (IC50) in data set [2] stood at 18 nM; in data set [3], 78.7 nM; in data set [4] it was 1.08 nM.

For the molecule `O=C(/C=C/c1cccnc1)NCCCCC1CCN(C(=O)c2ccccc2)CC1` [FK866, reference compound], the GI50 in data set [1] was 7.95 nM; in data set [5] it was 12.1 nM. Moreover, the CC50 in data set [5] was above 10000 nM.

Regarding `CCCNNC(=O)c1ccc(CNC(=O)CCCCCCCNC(=O)/C=C/c2cccnc2)cc1` [LEE37, (E)-N-(4-(2-propylhydrazino-1-carbonyl)benzyl)-8-(3-(pyridine-3-yl)acrylamido) octanamide], the figures for the half-inhibitory concentration (IC50) in data set [2], in data set [3] and in data set [4] were 17.8 nM, 84.1 nM and 1.98 nM, respectively.

For the molecule `CCCNNC(=O)CCCCCCNC(=O)NCc1cccnc1` [LEE5, 1-(7-oxo-7-(2-propylhydrazino)heptyl)-3-(pyridin-3-ylmethyl) urea], the results for the IC50 in data set [2], in data set [3] and in data set [4] were 444 nM, 398 nM and 110 nM, respectively.

`CCCNNC(=O)c1ccc(NC(=O)CCCCCCNC(=O)/C=C/c2cccnc2)cc1` [LEE40, (E)-N-(4-(2-propylhydrazino-1-carbonyl)phenyl)-7-(3-(pyridine-3-yl)acrylamido) heptamide] came in with a GI50 in data set [1] of 15.7 nM. In addition, the IC50 in data set [3] came out at 123 nM; in data set [4], 12.4 nM.

`COC(=O)c1ccc(CNC(=O)c2cc3cnccc3[nH]2)cc1` [LEE44, methyl 4-((1H-pyrrolo[3,2-c]pyridine-2-carbonylamide)methyl) benzoate]: in data set [6], the “inhibitory activity against NAMPT (in words)” value is given as “micromolar level” and the IC50 is 6710 nM.

For the molecule `CCCNNC(=O)CCCCCCNC(=O)/C=C/c1cccnc1` [LEE3, (E)-N-(7-oxo-7-(2-propylhydrazino)heptyl)-3-(pyridin-3-yl) acrylamide], the IC50 in data set [3] amounted to 339 nM.

As to `CCCNNC(=O)c1ccc(CNC(=O)c2cc3cnccc3s2)cc1` [LEE19, N-(4-(2-propylhydrazin-1-carbonyl)benzyl)thiopheno[3,2-c]pyridin-2-carboxamide], the GI50 in data set [1] is 54 nM; in data set [5], 77.3 nM. In data set [1], this molecule gave an LC50 (median lethal concentration) of 98.5 nM. Further, the cytotoxic concentration (CC50) in data set [5] was above 10000 nM. In addition, the results for the IC50 in data set [2], in data set [3] and in data set [4] were 10.1 nM, 60 nM and 1.2 nM, respectively.

As to `CCCNNC(=O)c1ccc(CNC(=O)/C=C/c2ccncc2)cc1` [LEE14, (E)-N-(4-(2-propylhydrazino-1-carbonyl)benzyl)-3-(pyridin-4-yl)acrylamide], the GI50 was 14.3 nM in data set [1] and 63.1 nM in data set [5]. For the same molecule, the LC50 (median lethal concentration) in data set [1] came to 83.6 nM. Further, the “LC50 values in p53-null cell strain HL60 (in words)” value in data set [5] is on record as “nanomolar level”. The molecule further came in with a CC50 in data set [5] of 6060 nM. Moreover, the half-maximal inhibitory concentration (IC50) turned out to be 12.7 nM in data set [2], 88.5 nM in data set [3] and 2.74 nM in data set [4].

Molecule `CCCNNC(=O)c1ccc(CNC(=O)c2cc3cnccc3o2)cc1` [LEE20, N-(4-(2-propylhydrazino-1-carbonyl)benzyl)furan[3,2-c]pyridine-2-carboxyamide] yielded a GI50 in data set [1] of 50.4 nM. In data set [1], this molecule returned an LC50 (median lethal concentration) of 109 nM. In data set [5], this molecule came in with a CC50 above 10000 nM. Further, the IC50 turned out to be 10.3 nM in data set [2], 38.4 nM in data set [3] and 0.52 nM in data set [4].

Consider `CCCNNC(=O)c1ccc(CNC(=O)/C=C/c2ccccn2)cc1` [LEE13, (E)-N-(4-(2-propylhydrazino-1-carbonyl)benzyl)-3-(pyridin-2-yl) acrylamide], for which the GI50 in data set [1] was found to be 15 nM; in data set [5] it was 128 nM. This molecule had an LC50 (median lethal concentration) in data set [1] of 125 nM. The molecule further had a half-maximal cytotoxic concentration (CC50) in data set [5] above 10000 nM. Besides, the results for the IC50 in data set [2], in data set [3] and in data set [4] were 13.2 nM, 49.2 nM and 1.82 nM, respectively.

Regarding `COC(=O)c1ccc(CNC(=O)/C=C/c2cccnc2)cc1` [LEE43, methyl (E)-4-((3-(pyridine-3-yl)acrylamido)methyl) benzoate], in data set [6], the “inhibitory activity against NAMPT (in words)” value was “micromolar level” and inhibition was half-maximal at 4680 nM (IC50).

Consider `CCCNNC(=O)c1ccc(CNC(=O)CCCCCCNC(=O)/C=C/c2cccnc2)cc1` [LEE39, (E)-N-(4-(2-propylhydrazino-1-carbonyl)benzyl)-7-(3-(pyridine-3-yl)acrylamido) heptanamide], for which the values for the IC50 in data set [2], in data set [3] and in data set [4] were 501 nM, 1180 nM and 84.3 nM, respectively.

`CCCNNC(=O)c1ccc(NC(=O)CCCCCCCNC(=O)/C=C/c2cccnc2)cc1` [LEE38, (E)-N-(4-(2-propylhydrazino-1-carbonyl)phenyl)-8-(3-(pyridine-3-yl)acrylamido) amide]: the IC50 in data set [2] is 620 nM; in data set [3], 539 nM; in data set [4], 97.4 nM.
